What is called MIC is the lowest concentration that inhibits growth of the organism.

The test system of assay [1] is Mycobacterium tuberculosis H37Rv CNCTC My 331/88 (ATCC 27294). Briefly: Antimycobacterial microplate alamar blue assay, M. tuberculosis H37Rv. In kind it is cell-based. To be noted: Mycobacterium tuberculosis. For orientation: Resazurin is reduced to fluorescent resorufin, in cell work by metabolically active cells.
In assay [2] the test system is M. kansasii CNCTC My 235/80 (ATCC 12478). Briefly: Antimycobacterial microplate alamar blue assay, M. kansasii. In kind it is cell-based, Mycobacterium kansasii. Particulars: Mycobacterium kansasii.
The subject of assay [3] is M. avium ssp. avium CNCTC My 80/72 (ATCC 15769). Briefly: Antimycobacterial microplate alamar blue assay, M. avium. In kind it is cell-based, Mycobacterium avium. Particulars: Mycobacterium avium.
Assay [4] has as its system Mycobacterium smegmatis DSM 43465 (ATCC 607). Put plainly: Antimycobacterial microdilution assay, M. smegmatis. The format is cell-based. Particulars: Mycolicibacterium smegmatis, 48 h, Middlebrook 7H9 broth, resazurin after 48 hours; read-out: Antimycobacterial Activity MIC M. smeg. (Dilution methods test growth across graded concentrations, often in twofold steps.)
Assay [5] relates to Mycobacterium aurum DSM 43999 (ATCC 23366). Put plainly: Antimycobacterial microdilution assay, M. aurum. In kind it is cell-based. To be noted: Mycolicibacterium aurum, 72 h, Middlebrook 7H9 broth, resazurin after 72 hours.
Assay [6] has as its system four Gram-positive and four Gram-negative bacterial strains. Put plainly: Antibacterial screening, microdilution broth, panel of eight strains. The format is cell-based. Particulars: concentration scale 500–0.97 μM.
Assay [7] deals with Candida albicans CCM 8320 (ATCC 24433). Briefly: Antifungal microdilution broth, C. albicans. To be noted: 48 h, read-out: MIC against Candida albicans. The format is cell-based.
For assay [8], the system named is C. krusei CCM 8271 (ATCC 6258). Put plainly: Antifungal microdilution broth, C. krusei. The format is cell-based, Candida krusei. To be noted: Pichia kudriavzevii, 48 h; read-out: MIC against C. krusei.
Assay [9] has as its system C. parapsilosis CCM 8260 (ATCC 22019). Briefly: Antifungal microdilution broth, C. parapsilosis. In kind it is cell-based, Candida parapsilosis. To be noted: Lodderomyces parapsilosis, 48 h; read-out: MIC against C. parapsilosis.
The subject of assay [10] is C. tropicalis CCM 8264 (ATCC 750). Put plainly: Antifungal microdilution broth, C. tropicalis. The format is cell-based. To be noted: Candida tropicalis, 48 h; read-out: MIC against C. tropicalis.
In assay [11] the test system is Aspergillus flavus CCM 8363. Put plainly: Antifungal microdilution broth, A. flavus. The format is cell-based. To be noted: CCM8363, 48 h, read-out: MIC against Aspergillus flavus.
For assay [12], the system named is Lichtheimia corymbifera CCM 8077. Put plainly: Antifungal microdilution broth, L. corymbifera. In kind it is cell-based. To be noted: CCM8077, 48 h, read-out: MIC against Lichtheimia corymbifera.
In assay [13] the test system is Trichophyton interdigitale CCM 8377 (ATCC 9533). Put plainly: Antifungal microdilution broth, T. interdigitale. To be noted: 72 h, read-out: MIC against Trichophyton interdigitale. The format is cell-based.
Assay [14] relates to Aspergillus fumigatus ATCC 204305. Briefly: Antifungal microdilution broth, A. fumigatus. The format is cell-based. Particulars: ATCC204305, 48 h, read-out: MIC against Aspergillus fumigatus.

Molecules are shown by their SMILES. Values after ≈ are worked out from the molar mass of the structure shown. Like-named read-outs stand apart in the source and are kept apart here.

Consider `Cc1cc(NS(=O)(=O)c2ccc(N)cc2)no1` [Sulfamethoxazole, 4-amino-N-(5-methylisoxazol-3-yl)benzenesulfonamide, reference compound], for which the MIC in assay [1] (pH 6.6, Middlebrook 7H9 broth pH 6.6, alamar blue, read-out: Antimycobacterial Activity MIC Mtb H37Rv) was 3.13 µg/mL; in assay [1] (read-out: MIC Mtb H37Rv), 12 µM; in [2] (ATCC12478, molar value printed beside μg/mL in text, read-out: MIC M. kansasii) it was 12 µM; in [2] (ATCC12478, pH 6.6, Middlebrook 7H9 broth pH 6.6, alamar blue, read-out: Antimycobacterial Activity MIC M. kansasii), 3.13 µg/mL; in [3] (ATCC15769, molar value printed beside μg/mL in text, read-out: MIC M. avium), 49 µM; in assay [3] (ATCC15769, pH 6.6, Middlebrook 7H9 broth pH 6.6, alamar blue, read-out: Antimycobacterial Activity MIC M. avium), 12.5 µg/mL. Moreover, the MIC in assay [4] was 250 µg/mL (≈ 987 µM); in assay [5], at least 500 µg/mL. Moreover, the “antibacterial activity MIC” value in assay [6] is on record as “not active against any of the tested bacterial strains”.
As for `C[C@@H](c1ncncc1F)[C@](O)(Cn1cncn1)c1ccc(F)cc1F` [voriconazole], the MIC in [7] is above 16 µg/mL; in assay [8] it was 0.5 µg/mL (≈ 1.43 µM); in assay [9], 8 µg/mL (≈ 22.9 µM); in [10], above 16 µg/mL; in assay [11], above 16 µg/mL; in assay [12], above 16 µg/mL. Further, the MIC in [13] is above 16 µg/mL; in [14], 1 µg/mL (≈ 2.86 µM).

Source of the values: article PMC6982817, “Substituted N-(Pyrazin-2-yl)benzenesulfonamides; Synthesis, Anti-Infective Evaluation, Cytotoxicity, and In Silico Studies” (Molecules, 2019).
